The source of these data is paper PMC2586422 (Bioorganic & medicinal chemistry, 2008).

For assay [1], the system named is HIV-1 RT. The following applies: cited from earlier work.
Assay [2] deals with MCF-7, SF-268, NCI-H460. Description: Human cell growth inhibition, three cell lines together. Type of assay: cell-based. The following applies: read-out: IC50 averaged over the three cell lines investigated.
Assay [3] concerns the target T1, Human FPPS (farnesyl diphosphate synthase) (Homo sapiens, UniProt P14324).
T1 sequence (P14324 1-419): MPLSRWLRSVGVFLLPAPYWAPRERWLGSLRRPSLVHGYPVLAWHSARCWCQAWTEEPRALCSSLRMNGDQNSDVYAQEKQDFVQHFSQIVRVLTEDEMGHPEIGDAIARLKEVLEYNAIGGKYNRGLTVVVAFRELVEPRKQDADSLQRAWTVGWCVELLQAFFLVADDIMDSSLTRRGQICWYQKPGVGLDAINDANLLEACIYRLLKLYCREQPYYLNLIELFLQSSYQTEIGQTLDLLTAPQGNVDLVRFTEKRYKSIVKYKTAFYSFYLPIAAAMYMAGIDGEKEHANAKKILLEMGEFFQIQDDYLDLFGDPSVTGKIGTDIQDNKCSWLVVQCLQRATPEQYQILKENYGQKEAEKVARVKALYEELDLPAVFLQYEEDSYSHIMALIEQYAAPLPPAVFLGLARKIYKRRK
Description: FPPS inhibition. Type of assay: biochemical.

Usually IC50 stands for the point on the concentration scale where inhibition reaches its midpoint.

In the case of `NCCC(O)(P(=O)(O)O)P(=O)(O)O` [Compound 4, pamidronate], the “inhibition of the phosphorolytic activity of RT (in words)” value in assay [1] was “competitively inhibited”.

For `O=P(O)(O)C(O)(Cn1ccnc1)P(=O)(O)O` [Compound 36, zoledronate], the IC50 in assay [2] is roughly 15 µM.

With `O=P(O)(O)C(Nc1cccc(-c2ccccc2)c1)P(=O)(O)O` [Compound 3], in assay [1] (previous work ref 11), the “activity in inhibiting NRTI excision (in words)” value was “some activity”. The IC50 in assay [2] was roughly 229 µM.

On to `O=P(O)(O)C(O)(Cc1cnc2ccccn12)P(=O)(O)O` [Compound 44, minodronate], for which the IC50 in assay [2] is roughly 5 µM.

For `O=P(O)(O)C(O)(Cc1ccc(Cl)c(Cl)c1)P(=O)(O)O` [Compound 5], the IC50 in assay [3] was determined as 8.5 µM.
